What was measured:
[1] = system: spontaneously hypertensive rats; experiment: antihypertensive activity in spontaneously hypertensive rats (tail cuff systolic pressure); type: in vivo, rat
Description: The compounds of formula I were tested for antihypertensive activity by the following standard procedure:
The blood pressures of male or female spontaneously hypertensive rats are measured in a 37° C constant temperature housing by means of a tail cuff. Rats with systolic pressures below 155 mmHg are discarded. Groups of rats are dosed orally with the test substance in a suitable vehicle or with vehicle alone. Systolic pressures are recorded before dosing and at selected time points afterwards. Heart rates are derived from caudal artery pulses. Results are analysed statistically by means of 2 way analysis of variance (within group).

isolated rat portal vein = experiment: calcium antagonist activity: response of isolated rat portal vein to increasing calcium ion concentration in vitro; details: read-out: molar concentration required to reduce the response by 50%
Text: In this-test a-molar concentration of 2×10^-7 M of 1,4-dihydro-2-(imidazol- 1-ylmethyl)-6-methyl 4-(3-nitrophenyl)pyridine-3, 5-dicarboxylic acid 3-ethyl 5-methyl ester was required to reduce the response by 50%.

[2] = system: blood platelet aggregation; experiment: inhibition of blood platelet aggregation (arachidonic acid induced, rabbit platelet rich plasma); type: cell-based, rabbit (New Zealand White); details: IC50 dazoxiben / IC50 test; 250 μM arachidonic acid, rabbit PRP
Description: Compounds of formula I were tested for their ability to inhibit blood platelet aggregation by a modification of the procedure of Fantl, Australian J.Exp.Biol- Med.Sci. 45, 355-62 1967.
Since platelet aggregation is the initial step in thrombus formation it -is considered that compounds which prevent aggregation or reduce platelet adhesiveness may inhibit the initiation of the atherosclerotic process. The effect of drugs on adhesiveness is measured in platelet-rich plasma containing a small amount of arachidonic acid which markedly increases aggregation in vitro and may be a physiological agent for doing so in vivo. The actual test procedure used in described below.
New Zealand White rabbits (2.5-3kg) are anaesthetised with an injection, via the marginal ear vein, of […]. The carotid artery is cannulated and blood (100-150 ml) is withdrawn into 50 ml syringes containing 3.8% sodium citrate (Ratio blood: citrate =9:1).
Blood is centrifuged at 200 g (1500 r.p.m.) for 10 minutes at 5° C. and the platelet rich plasma (PRP) removed. The platelets are then kept at room temperature in a screw topped plastic centrifuge tube for the duration of the experiment.
A twin channel platelet aggregometer--(HU aggregometer, A. Browne Ltd, Leicester, UK) is used. 1.0 ml aliquots of PRP are prewarmed for 5-10 minutes and stirred continuously at 1100 rpm. Aggregation is induced by addition of 250μM arachidonic acid, (8μl volume) to the PRP samples. The aggregometer output is set at maximum and the chart recorder sensitivity is altered to give a full scale deflection to this arachidonic acid response.
Control responses are recorded as the maximum deflection obtained after addition of 250μM arachidonic acid.
PRP samples are preincubated for 1 minute with the test compounds followed by arachidonic acid addition. The maximum deflection after the addition of arachidonic acid is then recorded. All drugs are screened initially at 10^-4 M (final concentration), i.e. 10μl of a 1×10^-2 M stock solution of the drug dissolved in distilled water is added to the PRP.
Dazoxiben, a thromboxane synthetase inhibitor (Randall, M. J. et al Research 23 145-162, 1981)is used as a positive control and all test components are compared with Dazoxiben. The activity of the test compound is expressed as the ratio IC50 Dazaxiben/IC50 Test where IC50 is the dose required to inhibit the A.A. induced aggregation by 50%.

thromboxane synthetase = experiment: inhibition of thromboxane production (TxB2 radio-immunoassay, rabbit platelet rich plasma); type: cell-based; details: Oryctolagus cuniculus, rabbit PRP, adenosine diphosphate and adrenalin, read-out: IC50 (50% inhibition of TxB2)
Description: The compounds of formula I were tested for their ability to inhibit thromboxane production by the following standard test:
a) Generation of thromboxanes
Blood (approx. 75 ml) is obtained from an anaesthetised rabbit and centrifuged at 200 g for 10 minutes to obtain platelet rich plasma (PRP). An aliquot of PRP is incubated for 10 minutes at 37° C. in the presence of vehicle or drug. Platelet aggregation is induced by the addition of adenosine diphosphate and adrenalin. The tubes are incubated for 3 minutes, centrifuged at 10,000 for 3 minutes and a […] aliquot of the supernatant taken for radio-immunoassay of thromboxane B2 (TxB2).
b) Radio-immunoassay of TxB2
The total incubation volume is 150μ containing 50μl of ^3 H - TxB2 (0.005 μCi), […] of sample or authentic TxB2 ranging from 5 to 300 pg per tube as standards and 50 μl of rabbit anti-sera to TxB2 (in a concentration which will bind 50% of H-TxB2) After incubation for 1 hour at room temperature the tubes are further incubated for 16-20 hours at 4° C. 1 ml of dextran-coated charcoal is then added to the tubes which are further incubated on ice for 10 minutes. Following the incubation the samples are centrifuged at 10,000 g for 10 minutes and […] of the supernatant added to 5 ml of scintillation cocktail. Measurement of the radioactivity in the supernatant quantifies the amount of [^3 H]-TxB2 bound by the antibody. The concentration of unlabelled TxB2 in the sample is then determined from a linear standard curve.
IC50 values represent the concentrations of drug which achieve 50% inhibition of TxB2.

human platelet PLA2 = experiment: Phospholipase A2 (PLA2) inhibition, hydrolysis of E.coli membrane phospholipids by human platelet PLA2; type: biochemical; details: 100 μM
Description: Of particular interest for this activity are compounds of formula I wherein Ar represents an aryl radical having a 2-nitro substituent. […] PLA2 activity was assayed by a procedure based on Franson, R.C., Chapter 12. Intracellular Metabolism of Ingested Phospholipids. Liposomes: from Physical Structure to Therapeutic Applications. North-Holland Biomedical Press, 1981, pp 349-380 and involving measuring the hydrolysis of E.coli membrane phospholipids and the release of free [1-^14 ]oleic acid from the C-2 position of phospholipids by human platelet PLA2.

SMILES	BLOOD PRESSURE as % of pre-dose level ([1]; 0.003 mmol/kg po, 6 hrs) [%]	BLOOD PRESSURE as % of pre-dose level ([1]; 0.003 mmol/kg po, 24 hrs) [%]	BLOOD PRESSURE as % of pre-dose level ([1]; 0.003 mmol/kg po, t = 2 hrs) [%]	BLOOD PRESSURE as % of pre-dose level ([1]; 0.03 mmol/kg po, 6 hrs) [%]	BLOOD PRESSURE as % of pre-dose level ([1]; 0.03 mmol/kg po, 24 hrs) [%]	BLOOD PRESSURE as % of pre-dose level ([1]; 0.03 mmol/kg po, t = 2 hrs) [%]	BLOOD PRESSURE as % of pre-dose level ([1]; 0.15 mmol/kg po, 6 hrs) [%]	BLOOD PRESSURE as % of pre-dose level ([1]; 0.15 mmol/kg po, 24 hrs) [%]	BLOOD PRESSURE as % of pre-dose level ([1]; 0.15 mmol/kg po, t = 2 hrs) [%]	IC50 (isolated rat portal vein) [µM]	Inhibition of blood platelet aggregation potency ratio (dazoxiben = 1) [2]	IC50 (thromboxane synthetase) [µM]	inhibition of PLA2 activity (human platelet PLA2) [%]
CCOC(=O)C1=C(Cn2ccnc2)NC(C)=C(C(=O)OC)C1c1cccc([N+](=O)[O-])c1 (stereo not drawn) [Example 1, 1,4-Dihydro-2-(imidazol-1-ylmethyl)-6-methyl-4-(3-nitro-phenyl)pyridine-3,5-dicarboxylic acid 3-ethyl 5-methyl diester]	70	83	65	62	105	48	46	85	42	0.2	1.2	5	
CCOC(=O)C1=C(C)NC(CCn2ccnc2)=C(C(=O)OCC)C1c1ccccc1[N+](=O)[O-] (stereo not drawn) [Example 2, 1,4-Dihydro-2-[2-(imidazol-1-yl)-ethyl]-6-methyl-4-(2-nitrophenyl)pyridine-3,5-dicarboxylic acid diethyl ester]				99	105	63	42	74	35		0.79	2.3	77
COC(=O)C1=C(C)NC(CCn2ccnc2)=C(C(=O)OC)C1c1ccccc1[N+](=O)[O-] (stereo not drawn) [Example 3, 1,4-Dihydro-2-[2-(1-imidazolyl)ethyl]-6-methyl-4-(2-nitrophenyl)pyridine-3,5-dicarboxylic acid dimethyl ester]											1.64		
CCOC(=O)C1=C(COc2cccnc2)NC(C)=C(C(=O)OC)C1c1cccc([N+](=O)[O-])c1 (stereo not drawn) [Example 4, 1,4-Dihydro-2methyl-4-(3-nitrophenyl)-6-[(3-pyridyloxy)methyl]pyridine-3,5-dicarboxylic acid 5-ethyl-3-methyl diester]											1.1		
COC(=O)C1=C(C)NC(CCn2cnc3ccccc32)=C(C(=O)OC)C1c1cccc(Cl)c1Cl (stereo not drawn) [Example 5, 2-[2-(1-Benzimidazolyl)ethyl]-4-[2,3-dichlorophenyl]-1,4-dihydro-6-methylpyridine-3,5-dicarboxylic acid dimethylester]												12.3	

Source: patent US5068337A, “1,4-dihydropyridines and their ability to inhibit blood platelet aggregation, inhibit thromboxane synthetase and phospholipase” (John Wyeth & Brother Limited, priority 1984, dated 1991)
